In patent US20170095565A1, “CHEMICALLY MODIFIED SMALL MOLECULES” (Nektar Therapeutics, priority 2003, published 2017):
Like-named read-outs stand apart in the source and are kept apart here.

How the values were obtained:
[1] = molecular target: T1, human glucocorticoid receptor (hGR) (Homo sapiens, UniProt P04150); test: Steroid-induced nuclear translocation assay of hGR in CHO cells; type: cell-based
T1 construct: expressed in transfected cells; host or cells: Chinese Hamster Ovary (CHO) cells
T1 sequence (P04150 1-777): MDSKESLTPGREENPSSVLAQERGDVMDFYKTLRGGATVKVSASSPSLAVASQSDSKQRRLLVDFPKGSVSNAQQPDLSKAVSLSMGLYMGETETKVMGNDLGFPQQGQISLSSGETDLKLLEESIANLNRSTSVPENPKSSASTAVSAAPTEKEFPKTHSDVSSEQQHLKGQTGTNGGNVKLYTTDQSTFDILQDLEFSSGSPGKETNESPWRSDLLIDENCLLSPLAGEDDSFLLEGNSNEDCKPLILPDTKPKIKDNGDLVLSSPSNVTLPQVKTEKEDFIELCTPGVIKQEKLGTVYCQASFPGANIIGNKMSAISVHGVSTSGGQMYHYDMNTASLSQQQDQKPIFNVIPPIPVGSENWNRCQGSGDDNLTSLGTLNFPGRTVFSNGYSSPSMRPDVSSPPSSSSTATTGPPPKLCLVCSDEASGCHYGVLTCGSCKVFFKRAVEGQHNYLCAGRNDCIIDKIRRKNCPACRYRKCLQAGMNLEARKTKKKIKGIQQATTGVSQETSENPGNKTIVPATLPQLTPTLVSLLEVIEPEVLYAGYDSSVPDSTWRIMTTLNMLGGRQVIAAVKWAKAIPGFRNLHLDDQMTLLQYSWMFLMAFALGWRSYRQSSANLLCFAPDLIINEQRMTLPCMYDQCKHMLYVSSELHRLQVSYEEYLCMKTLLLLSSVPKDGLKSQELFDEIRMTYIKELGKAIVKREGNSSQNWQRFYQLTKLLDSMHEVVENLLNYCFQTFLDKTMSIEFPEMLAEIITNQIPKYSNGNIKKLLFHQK
Description: To determine whether PEGylated steroids can enter cells, and to compare their potency with the parent steroid triamcinolone, cells expressing the human glucocorticoid receptor (hGR) were incubated with increasing concentrations of TA, PEG-3-TA and PEG-7-TA, and the subcellular location of the hGR determined using immunocytochemistry and fluorescence microscopy.
Chinese Hamster Ovary (CHO) cells were plated on glass coverslips in 24-well plates, and transfected with DNA encoding the hGR using 0.25 μg DNA per well. One day following transfection, cells were incubated with increasing concentrations, from 1 nM to 10 μM, of TA, PEG-3-TA or PEG-7-TA, overnight at 37° C.
Stock solutions of steroids were prepared at 2 mM (TA) or 1 mM (PEG-3-TA, PEG-7-TA) in ethanol. Each test compound was diluted to 10 μM into culture medium supplemented with dextran-coated charcoal treated serum (DCCS) (final 5% serum), and then further diluted to the final concentrations. […] Dilutions of steroid were calculated to ensure that cells were not exposed to ethanol concentrations greater than 1% (v/v). […]
Following treatment with test compounds, cells were fixed in 3.7% (v/v) formaldehyde/PBS and permeabilized with 1% (v/v) Triton-X-100 in blocking buffer. Subcellular localization of the transfected hGR was determined by immunocytochemistry using an anti-GR antibody and a FITC-conjugated secondary antibody. […]

[2] = molecular target: T2, hGR (Homo sapiens, UniProt P04150); test: Glucocorticoid receptor luciferase reporter assay in COS-7 cells; type: cell-based; conditions: for EC50: ± standard error, 20 hours incubation, TA n = 1
T2 construct: expressed in transfected cells; host or cells: COS-7 cells
T2 sequence (P04150 1-777): T1 sequence (P04150 1-777)
Text: To quantitate the effect of PEGylation on the ability of the steroid to enter a cell and elicit a response, a glucocorticoid receptor reporter assay was employed. In this assay, treatment of cells with ligand leads to receptor-mediated expression of the firefly luciferase gene. The level of gene expression is quantitated by an enzymatic luciferase assay, and the amount of light produced is directly proportional to the expression level of the luciferase gene.
For these experiments, the Promega Dual Luciferase Reporter kit was employed. This involves a firefly luciferase reporter gene under the control of the Glucocorticoid Response Element (GRE-Luc), co-transfected into COS-7 cells with a gene encoding the hGR and a control vector containing a Renilla luciferase reporter gene under no promoter or enhancer elements (pRL-Null). The firefly luciferase gene is expressed only upon binding of a ligand-bound receptor to the GRE-Luc enhancer. […]
Cos-cells were plated in 96-well microplates and transfected with the relevant plasmids using standard procedures; all incubations and assays were performed in triplicate in these plates using medium containing DCCS, as described in section 8.3.1. […] Cells were then lysed, and the expression levels of firefly and Renilla luciferase were determined by sequential enzymatic assays provided by the Promega Dual Luciferase Reporter Assay kit. The resulting luminescence was detected using the Tecan Genios Pro Microplate reader, and data were analyzed using GraphPad Prism 4.0 software.
Readings obtained in the absence of steroid represent “basal” background levels of luciferase expression. All readings in the presence of steroid are expressed as a ratio compared with this, and termed “fold increase over basal.” Values obtained for firefly luciferase were normalized to those obtained for Renilla luciferase in the corresponding well in order to compensate for differences in transfection efficiency or cell number.

[3] = molecular target: T3, recombinant human glucocorticoid receptor (Homo sapiens, UniProt P04150); test: Cell-free glucocorticoid receptor binding assay (fluorescence polarization); conditions: for Ki: ± standard error, TA n = 2
T3 construct: purchased PanVera
T3 sequence (P04150 1-777): T1 sequence (P04150 1-777)
Text: The assay is based on competitive inhibition binding of a fluorescently labeled high affinity ligand, and generates Ki values that can be compared between the test compounds. […] Thus, as with EC5o values, a higher Ki value reflects a weaker binding affinity.
A commercially available GR binding assay based on fluorescence polarization (FP) was utilized to compare the binding affinity of the PEGylated and native steroids (PanVera Glucocorticoid Receptor Competitor Assay). The assay is based on competitive inhibition and measures the ability of the test compound to compete with a fluorescently labeled ligand (Fluormone™ GS1) for binding to a purified preparation of the recombinant human glucocorticoid receptor.
In its free unbound form, the fluorescent ligand behaves as a small molecule with a high rotational velocity or “tumbling rate”, and correspondingly low ability to polarize fluorescence light (i.e. a low FP). When bound to receptor, the ligand essentially becomes part of a larger molecule, with a slower rotational velocity and a higher FP.
Standard competition assay procedures were employed. Briefly, serial dilutions of the test compound were incubated in triplicate wells of a black 96-well microplate together with the fluorescent ligand, and reactions were initiated by addition of purified recombinant receptor. Assays were incubated in the dark for 2-4 h, and then polarization values were read using the fluorescence polarization function of the Tecan Genios Pro microplate reader.

[4] = in vivo; cited from earlier work
[5] = molecular target: Mu-opiate (Homo sapiens, UniProt P35372); conditions: read-out: IC50, Mu-opiate binding activity
Sequence of Mu-opiate (P35372 whole entry): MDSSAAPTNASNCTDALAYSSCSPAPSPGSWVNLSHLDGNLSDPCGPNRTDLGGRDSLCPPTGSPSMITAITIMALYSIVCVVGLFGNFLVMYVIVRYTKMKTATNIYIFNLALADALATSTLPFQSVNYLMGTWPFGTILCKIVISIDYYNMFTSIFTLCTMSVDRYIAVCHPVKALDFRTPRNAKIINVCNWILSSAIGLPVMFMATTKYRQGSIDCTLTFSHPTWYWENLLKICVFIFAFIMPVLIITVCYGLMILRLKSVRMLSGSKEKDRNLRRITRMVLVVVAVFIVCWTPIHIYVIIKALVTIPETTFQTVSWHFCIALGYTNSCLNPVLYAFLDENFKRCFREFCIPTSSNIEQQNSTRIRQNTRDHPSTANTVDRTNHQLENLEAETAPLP

[6] = Oral bioavailability: plasma concentration after oral gavage; type: in vivo, Sprague Dawley rats; conditions: rats, PEGylated compounds normalized to 1 mg/kg dose
Description: Female Sprague Dawley® rats (150-200 g) were obtained from Harlan Labs. […] The animals were fasted overnight (day −1), but water was provided ad libitum.
On the morning of dosing (day 0), each rat was weighed and the cannulas flushed with heparin (1000 U/mL). With the aid of a feeding tube, the animals were then dosed orally (gavage) with aqueous formulations containing either the PEGylated or the free drug. The dose was determined on a mg/kg body weight basis. […] At specific time intervals (1, 2 and 4 hours), blood samples (approximately 1.0 mL) were removed through the cannula, placed in 1.5 mL centrifuge tubes containing 14 μL of heparin, mixed and centrifuged to separate the plasma. The plasma samples were frozen (<−70° C.) until assayed. The plasma samples were purified by a precipitation technique and the analyte extracted and assayed using a high performance liquid chromatography (LC) method with a mass selective detector (MSD). […] When appropriate, an internal standard was used in the analysis.

[7] = molecular target: μ-Opiate Receptors (Homo sapiens, UniProt P35372); test: biochemical; type: biochemical
Sequence of μ-Opiate Receptors (P35372 whole entry): as above
Text: In the table above, for each compound, the bioactivity is provided as a measure of the relative bioactivity of each of the various PEG conjugates in comparison to parent drug. The EC50 is the concentration of agonist that provokes a response halfway between the baseline and maximum response in a standard dose-response curve.

[8] = Solubility of tested compounds (Table 1)
[9] = In-vitro metabolism, incubation with liver microsomes
Description: The procedure calls for the preparation of a NADPH regenerating system (NRS) solution. […] After the solids were all dissolved, the solution was stored in an ice bath.
Male Sprague Dawley rat microsomes (0.5 mL at 20 mg/mL concentration; M00001 from In-vitro Technologies, Baltimore, Md.) were removed from the freezer and thawed in an ice bath. Forty μL of the liver microsomes were diluted to 100 μL with 60 μL of deionized water in a test vial. To the test vial, tris buffer, pH 7.4 (640 μL) and a test article stock (10 μL) were added to have 750 μL volume.
Each test vial and the NRS solution were separately placed in a 37° C. water bath for 5 minutes. The NRS solution (250 μL) was added into each test vial. The reaction timer was started at the addition of the NRS to the first test vial. Each sample (200 μL) was collected and then perchloric acid (20 μL) was added to terminate the reaction. The samples were collected at the following time points: 0-2, 20, 40 and 60 minutes. All of the terminated test vials were stored in an ice bath.
Acetonitrile (100 μL) was added into each test vial, which was then centrifuged at 3000×g for 5 minutes. Supernatant (230 μL) was withdrawn and then 10 μL of the test solution was assayed by an LC/MS method. The concentration of test article in each sample was measured and recorded at each time point.

C[C@]12C=CC(=O)C=C1CC[C@H]1[C@@H]3C[C@@H](O)[C@](O)(C(=O)CO)[C@@]3(C)C[C@H](O)[C@@]12F [TA, triamcinolone]
Concentration for complete translocation of hGR to the nucleus [1]: ≥ 10 nM | hGR localization ([1]; 1 nM (lowest concentration), overnight): predominantly in the nucleus | EC50 [2]: 0.545 nM | Ki [3]: 45.5 ± 21.1 nM

CC1(C)O[C@@H]2C[C@H]3[C@@H]4CCC5=CC(=O)C=C[C@]5(C)[C@@]4(F)[C@@H](O)C[C@]3(C)[C@]2(C(=O)CO)O1 [TAA, triamcinolone acetonide]
Fold difference vs TAA (EC50, Luciferase assay) [2]: 1 | EC50 [2]: 0.062 ± 0.011 nM | Fold difference vs TAA (Ki, Binding assay) [3]: 1 | Ki [3]: 2.2 ± 0.5 nM

Nc1nc(F)nc2c1ncn2[C@@H]1O[C@H](CO)[C@@H](O)[C@@H]1O [fludarabine]
Oral bioavailability [4]: about 70%

C=CCN1CC[C@]23c4c5ccc(O)c4O[C@H]2C(OCCOCCOCCOC)CC[C@@]3(O)[C@H]1C5 (stereo partly drawn) [β-PEG3-Nal, β-6-CH3—(OCH2CH2)3—O-naloxol]
IC50 [5]: 31.7 nM | Mean Plasma Concentration ± SD, 1 hr ([6]; 1 hr): 53.79 ± 5.19 ng/mL | Mean Plasma Concentration ± SD, 2 hr ([6]; 2 hr): 22.47 ± 8.78 ng/mL | Bioactivity relative to the parent compound ([7]; from EC50 values): about 35% | EC50 ([7]; μ-opiate receptors, in-vitro): 31.7 nM | Percentage of Active Remaining After Incubation with Liver Microsomes (0 min): 100.0% | Percentage of Active Remaining After Incubation with Liver Microsomes (20 min): 83.9% | Percentage of Active Remaining After Incubation with Liver Microsomes (40 min): 75.2% | Percentage of Active Remaining After Incubation with Liver Microsomes (60 min): 69.6% | Solubility [8]: soluble | Substrate quality for cytochrome P450 isozymes in isolated rat liver microsomes [9]: poor substrate
